According to patent US11040031B2, “Pyrazole derivatives as MALT1 inhibitors” (Janssen Pharmaceutica NV, priority 2018, dated 2021):
Where two headings read alike, the source gives them in different places.

Assays:
[1] = target: T1, full-length MALT1 protein (Strep-MALT1(1-824)-His) (Homo sapiens, UniProt Q9UDY8); test: biochemical;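 further: fluorogenic LRSR-AMC substrate cleavage by MALT1, 50 min compound preincubation then 4 h reaction at RT, 11-point dilution from 30 µM, scaled between enzyme-free and untreated enzyme controls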
T1 sequence (Q9UDY8 1-824): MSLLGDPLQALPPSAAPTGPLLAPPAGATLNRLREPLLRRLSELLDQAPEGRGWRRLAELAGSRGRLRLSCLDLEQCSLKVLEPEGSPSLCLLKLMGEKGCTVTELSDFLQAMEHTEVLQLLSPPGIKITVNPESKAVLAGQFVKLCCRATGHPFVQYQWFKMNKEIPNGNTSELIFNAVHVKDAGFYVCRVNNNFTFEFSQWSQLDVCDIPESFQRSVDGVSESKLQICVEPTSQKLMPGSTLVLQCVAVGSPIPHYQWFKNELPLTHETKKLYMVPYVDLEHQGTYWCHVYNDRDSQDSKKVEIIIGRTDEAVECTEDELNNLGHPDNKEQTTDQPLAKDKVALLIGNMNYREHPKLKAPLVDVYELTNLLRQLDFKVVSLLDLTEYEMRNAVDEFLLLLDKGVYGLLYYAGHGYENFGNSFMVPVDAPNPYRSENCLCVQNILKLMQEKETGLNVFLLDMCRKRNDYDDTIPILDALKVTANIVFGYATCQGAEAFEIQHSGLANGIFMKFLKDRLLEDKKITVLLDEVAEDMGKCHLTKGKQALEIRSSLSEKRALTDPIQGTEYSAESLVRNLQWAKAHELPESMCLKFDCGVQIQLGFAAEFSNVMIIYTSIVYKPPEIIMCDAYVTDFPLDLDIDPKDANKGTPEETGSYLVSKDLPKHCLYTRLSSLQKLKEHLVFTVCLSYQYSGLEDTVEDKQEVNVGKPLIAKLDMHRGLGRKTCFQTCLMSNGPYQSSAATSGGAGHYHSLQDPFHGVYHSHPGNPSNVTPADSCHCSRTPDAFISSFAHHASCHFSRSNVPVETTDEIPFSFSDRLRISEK

[2] = system: Secretion of IL6 by OCI-LY3 ABC-DLBCL cells; test: Human IL6 Mesoscale assay (OCI-LY3); type: cell-based; details: read-out: Human IL6 Mesoscale assay (OCI-LY3)
Protocol: (§1) NFKB signaling regulates the secretion of multiple cytokines, including IL6 and IL10. Secretion of the cytokines IL6 and IL10 by TMD8 or OCI-LY3 ABC-DLBCL cells was measured using a mesoscale assay.
(§2) Cell passage number should not exceed 30. Cells should be kept between 0.5-2.5 million cells per mL during culturing and cells should be supplemented every 2-3 days with fresh 50 µM beta-mercaptoenthanol. No beta-mercaptoethanol was used during the mesoscale assay.
(§3) DMSO control wells were used to determine the maximum signal (High Control (HC)). […] Compounds and cells were incubated for 24 h at 37° C. and 5% CO2 (assay volume is 150 μL). After 24 h of incubation 50 μL of the supernatant was transferred to a MSD plate (V-Plex Proinflammation Panel 1 (human) kit, Mesoscale (MSD)) and incubated for 2 h with vigorous shaking (600 rpm) at room temperature. Following incubation, plates were washed 3× with PBS+0.05% Tween-20 and 25 μL detection antibody solution (IL6 & IL10 antibodies in diluent 3 (MSD)) was added per well followed by 2 h of incubation with vigorous shaking (600 rpm) at room temperature. After 3× washes with PBS+0.05% Tween-20, plates were incubated with 150 μL 2× Read Buffer T and read on SECTOR imager.

[3] = system: Secretion of IL10 by OCI-LY3 ABC-DLBCL cells; test: Human IL10 Mesoscale assay (OCI-LY3); type: cell-based; details: read-out: Human IL10 Mesoscale assay (OCI-LY3)
Protocol: as §1, §2, §3

[4] = OCI-LY3 cells, 24 h incubation, supernatant, MSD V-Plex

| Structure (SMILES) | IC50 [1] [nM] | further results |
| --- | --- | --- |
| Cc1cc(-n2nccn2)c(C#N)cc1NC(=O)c1cnn(-c2ccc(F)c(N)n2)c1C(F)(F)F [Cpd 195, 1-(6-amino-5-fluoropyridin-2-yl)-N-(5-cyano-2-methyl-4-(2H-1,2,3-triazol-2-yl)phenyl)-5-(trifluoromethyl)-1H-pyrazole-4-carboxamide] | 1200 | IC50 ([2]; OCI-Ly3, 24 h): 5370 nM; IC50 ([3]; OCI-Ly3, 24 h): 1860 nM |
| Cc1c(-n2ncc(C(=O)Nc3cnc(-n4nccn4)c(Cl)c3)c2C(F)(F)F)ccc(F)c1F [Cpd 174, N-(5-chloro-6-(2H-1,2,3-triazol-2-yl)pyridin-3-yl)-1-(3,4-difluoro-2-methylphenyl)-5-(trifluoromethyl)-1H-pyrazole-4-carboxamide] | 170 | IC50 [3, 4]: 83 nM |
| Cc1nc(C#N)ccc1-n1ncc(C(=O)Nc2cnc(-n3nccn3)c(Cl)c2)c1C(F)(F)F [Cpd 201, N-(5-chloro-6-(2H-1,2,3-triazol-2-yl)pyridin-3-yl)-1-(6-cyano-2-methylpyridin-3-yl)-5-(trifluoromethyl)-1H-pyrazole-4-carboxamide] | 138 |  |
| Cc1c(F)ccc(-n2ncc(C(=O)Nc3cnc(-n4nccn4)c(C#N)c3)c2C(F)(F)F)c1Cl [Cpd 72, 1-(2-chloro-4-fluoro-3-methylphenyl)-N-(5-cyano-6-(2H-1,2,3-triazol-2-yl)pyridin-3-yl)-5-(trifluoromethyl)-1H-pyrazole-4-carboxamide] | 603 |  |
| O=C(Nc1cnc(-n2nccn2)c(Cl)c1)c1cnn(-c2ccc(F)c(Cl)c2)c1C(F)(F)F [Cpd 108, 1-(3-chloro-4-fluorophenyl)-N-(5-chloro-6-(2H-1,2,3-triazol-2-yl)pyridin-3-yl)-5-(trifluoromethyl)-1H-pyrazole-4-carboxamide] | 776 |  |
| COc1nccc(-n2ncc(C(=O)Nc3cnc(-n4nccn4)c(C#N)c3)c2C(F)(F)F)c1C [Cpd 38, N-(5-cyano-6-(2H-1,2,3-triazol-2-yl)pyridin-3-yl)-1-(2-methoxy-3-methylpyridin-4-yl)-5-(trifluoromethyl)-1H-pyrazole-4-carboxamide] | 324 |  |
| Cc1cc(S(C)(=O)=O)ccc1-n1ncc(C(=O)Nc2cnc(-n3nccn3)c(Cl)c2)c1C(F)(F)F [Cpd 75, N-(5-chloro-6-(2H-1,2,3-triazol-2-yl)pyridin-3-yl)-1-(2-methyl-4-(methylsulfonyl)phenyl)-5-(trifluoromethyl)-1H-pyrazole-4-carboxamide] | 1070 |  |
| Cc1cc(F)c(N)nc1-n1ncc(C(=O)Nc2cc(Cl)c(-n3nccn3)nc2C)c1C(F)(F)F [Cpd 188, 1-(6-amino-5-fluoro-3-methylpyridin-2-yl)-N-(5-chloro-2-methyl-6-(2H-1,2,3-triazol-2-yl)pyridin-3-yl)-5-(trifluoromethyl)-1H-pyrazole-4-carboxamide] | 380 |  |
| COc1ccnc(-n2ncc(C(=O)Nc3cnc(-n4nccn4)c(Cl)c3)c2C(F)(F)F)c1Cl [Cpd 65, 1-(3-chloro-4-methoxypyridin-2-yl)-N-(5-chloro-6-(2H-1,2,3-triazol-2-yl)pyridin-3-yl)-5-(trifluoromethyl)-1H-pyrazole-4-carboxamide] | 5750 |  |
| N#Cc1cc(NC(=O)c2cnn(-c3nc(Cl)ccc3C(F)(F)F)c2C(F)(F)F)cnc1-n1nccn1 [Cpd 164, 1-(6-chloro-3-(trifluoromethyl)pyridin-2-yl)-N-(5-cyano-6-(2H-1,2,3-triazol-2-yl)pyridin-3-yl)-5-(trifluoromethyl)-1H-pyrazole-4-carboxamide] | 1410 |  |
| Cc1cnc([C@@H]2CCCO2)cc1-n1ncc(C(=O)Nc2cnc(-n3nccn3)c(Cl)c2)c1C(F)(F)F (single isomer, unassigned) [Cpd 204, (*S)—N-(5-chloro-6-(2H-1,2,3-triazol-2-yl)pyridin-3-yl)-1-(5-methyl-2-(tetrahydrofuran-2-yl)pyridin-4-yl)-5-(trifluoromethyl)-1H-pyrazole-4-carboxamide] | 525 |  |

The remaining compounds from weak to strong by IC50 [1], led by results:

| IC50 [1] [nM] | Structure (SMILES) | further results |
| --- | --- | --- |
| 7080 | O=C(Nc1cnc(-n2nccn2)c(Cl)c1)c1cnn(-c2ccccc2)c1F [Cpd 26, N-(5-chloro-6-(2H-1,2,3-triazol-2-yl)pyridin-3-yl)-5-fluoro-1-phenyl-1H-pyrazole-4-carboxamide] |  |
| 5130 | O=C(Nc1cnc(-n2nccn2)c(Cl)c1)c1cnn(-c2cccc(C3=COCCO3)n2)c1C(F)(F)F [Cpd 208, N-(5-chloro-6-(2H-1,2,3-triazol-2-yl)pyridin-3-yl)-1-(6-(5,6-dihydro-1,4-dioxin-2-yl)pyridin-2-yl)-5-(trifluoromethyl)-1H-pyrazole-4-carboxamide] |  |
| 2950 | COC(C)c1ccccc1-n1ncc(C(=O)Nc2cnc(-n3nccn3)c(Cl)c2)c1C(F)(F)F (centres unmarked) [Cpd 118, N-(5-Chloro-6-(2H-1,2,3-triazol-2-yl)pyridin-3-yl)-1-(2-(1-methoxyethyl)phenyl)-5-(trifluoromethyl)-1H-pyrazole-4-carboxamide] |  |
| 2880 | CS(=O)(=O)c1cccc(-n2ncc(C(=O)Nc3cnc(-n4nccn4)c(Cl)c3)c2C(F)(F)F)c1 [Cpd 74, N-(5-chloro-6-(2H-1,2,3-triazol-2-yl)pyridin-3-yl)-1-(3-(methylsulfonyl)phenyl)-5-(trifluoromethyl)-1H-pyrazole-4-carboxamide] |  |
| 2510 | Cc1ccc(-n2ncc(C(=O)Nc3cc(C#N)c(-n4nccn4)nc3C)c2C(F)(F)F)nc1N [Cpd 197, 1-(6-amino-5-methylpyridin-2-yl)-N-(5-cyano-2-methyl-6-(2H-1,2,3-triazol-2-yl)pyridin-3-yl)-5-(trifluoromethyl)-1H-pyrazole-4-carboxamide] |  |
| 2090 | Cc1cccc(-n2ncc(C(=O)Nc3cnc(-n4nccn4)c(Cl)c3)c2C(F)(F)F)n1 [Cpd 24, N-(5-chloro-6-(2H-1,2,3-triazol-2-yl)pyridin-3-yl)-1-(6-methylpyridin-2-yl)-5-(trifluoromethyl)-1H-pyrazole-4-carboxamide] |  |
| 575 | O=C(Nc1cnc(-n2nccn2)c(Cl)c1)c1cnn(-c2c(F)cccc2Cl)c1C(F)(F)F [Cpd 90, N-(5-chloro-6-(2H-1,2,3-triazol-2-yl)pyridin-3-yl)-1-(2-chloro-6-fluorophenyl)-5-(trifluoromethyl)-1H-pyrazole-4-carboxamide] |  |
| 257 | Cc1c(-n2ncc(C(=O)Nc3cnc(-n4nccn4)c(Cl)c3)c2C(F)(F)F)ccnc1Cl [Cpd 155, 1-(2-chloro-3-methylpyridin-4-yl)-N-(5-chloro-6-(2H-1,2,3-triazol-2-yl)pyridin-3-yl)-5-(trifluoromethyl)-1H-pyrazole-4-carboxamide] |  |
| 245 | N#Cc1cc(NC(=O)c2cnn(-c3ccc(F)c(F)c3)c2C(F)(F)F)cnc1-n1nccn1 [Cpd 104, N-(5-cyano-6-(2H-1,2,3-triazol-2-yl)pyridin-3-yl)-1-(3,4-difluorophenyl)-5-(trifluoromethyl)-1H-pyrazole-4-carboxamide] |  |
| 145 | Cc1c(F)cccc1-n1ncc(C(=O)Nc2cnc(-n3nccn3)c(Cl)c2)c1C(F)(F)F [Cpd 171, N-(5-chloro-6-(2H-1,2,3-triazol-2-yl)pyridin-3-yl)-1-(3-fluoro-2-methylphenyl)-5-(trifluoromethyl)-1H-pyrazole-4-carboxamide] | IC50 [2, 4]: 98 nM; IC50 [3, 4]: 76 nM |
| 32 | Cc1cc(F)c(N)nc1-n1ncc(C(=O)Nc2cnc(-n3nccn3)c(C#N)c2)c1C(F)(F)F [Cpd 145, 1-(6-amino-5-fluoro-3-methylpyridin-2-yl)-N-(5-cyano-6-(2H-1,2,3-triazol-2-yl)pyridin-3-yl)-5-(trifluoromethyl)-1H-pyrazole-4-carboxamide] | IC50 ([2]; OCI-Ly3, 24 h): 17 nM; IC50 ([3]; OCI-Ly3, 24 h): 18 nM |
